Columns and labels:
SIBO [1] = assay: Case: depression with SIBO, neomycin; format: in vivo, human; conditions: one patient
Text: A person presented with bloating, gas, abdominal distention, and cramping for a period of 3 years prior to LBHT. Symptoms of depression first appeared concurrently with the first appearance of bowel symptoms, and were serious enough that psychiatric hospitalization had been considered by their attending psychiatrist. The subject reported feeling very depressed and was convinced that life was not worth living. The subject=s LBHT indicated the presence of a SIBO condition. […] The subject had been prescribed eight different anti-depressant medications, all of which were discontinued as a result of their improvement.

SIBO [2] = assay: Neomycin treatment of SLE subjects with SIBO; format: in vivo, human
Description: Fifteen of the 202 (7.4%) subjects in the database had been diagnosed with SLE. Of these 15 subjects, 13 (87%) had bacterial overgrowth, as indicated by LBHT. Four of the 15 subjects with SLE returned for follow-up LBHT and questionnaire after treatment with neomycin (500 mg twice daily for 10 days). […] (Table 3).

neomycin
depression (SIBO [1]): completely resolved | VAS score Fatigue, After Antibiotic (SIBO [2]; four SLE patients): 3.5 ± 1.4 | VAS score Gas, After Antibiotic (SIBO [2]; four SLE patients): 1.9 ± 1.7 | VAS score Joint Pains, After Antibiotic (SIBO [2]; four SLE patients): 0.5 ± 0.6 | VAS score Bloating, After Antibiotic (SIBO [2]; four SLE patients, neomycin 500 mg twice daily for 10 days): 1.3 ± 1.3 | LBHT result after treatment (SIBO [2]; four SLE subjects): negative for SIBO

Reference: patent US9358276B2, “Methods of diagnosing and treating small intestinal bacterial overgrowth (SIBO) and SIBO-related conditions” (Cedars-Sinai Medical Center, priority 1999, dated 2016)
